Assay [1] addresses T1, Estrogen receptor beta (Homo sapiens, UniProt Q92731). Put plainly: Displacement of [3H]estradiol from Estrogen receptor beta.
The target in assay [2] is T2, Estrogen receptor (Homo sapiens, UniProt P03372).
T2 sequence (P03372 whole entry): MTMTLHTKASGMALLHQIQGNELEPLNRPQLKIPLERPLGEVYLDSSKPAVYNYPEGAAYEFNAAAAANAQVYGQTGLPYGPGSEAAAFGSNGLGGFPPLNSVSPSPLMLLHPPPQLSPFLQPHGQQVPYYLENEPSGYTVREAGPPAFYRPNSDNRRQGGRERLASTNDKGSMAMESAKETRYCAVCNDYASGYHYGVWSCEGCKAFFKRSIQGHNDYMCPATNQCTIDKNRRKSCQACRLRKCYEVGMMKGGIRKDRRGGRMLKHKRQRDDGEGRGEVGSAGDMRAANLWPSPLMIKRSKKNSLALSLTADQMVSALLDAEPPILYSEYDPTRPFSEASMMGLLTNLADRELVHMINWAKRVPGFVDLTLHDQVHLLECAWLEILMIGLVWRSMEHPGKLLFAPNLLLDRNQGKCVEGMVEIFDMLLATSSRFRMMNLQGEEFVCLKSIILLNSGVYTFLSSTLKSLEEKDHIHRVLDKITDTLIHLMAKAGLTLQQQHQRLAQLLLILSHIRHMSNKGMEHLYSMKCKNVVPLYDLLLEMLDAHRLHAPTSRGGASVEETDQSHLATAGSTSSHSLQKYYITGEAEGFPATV
Put plainly: Displacement of [3H]estradiol from Estrogen receptor alpha.

Assay [3] deals with T2, Estrogen receptor. Kind of assay: Inhibitory activity against Estrogen receptor alpha.
Assay [4] deals with T1, Estrogen receptor beta. Kind of assay: Inhibitory activity against Estrogen receptor beta.

We go through seven compounds from ChEMBL document CHEMBL1133963, “Furans with basic side chains: synthesis and biological evaluation of a novel series of antagonists with selectivity for the estrogen receptor alpha” (Bioorg Med Chem Lett, 2001).

T1 sequence (Q92731 whole entry): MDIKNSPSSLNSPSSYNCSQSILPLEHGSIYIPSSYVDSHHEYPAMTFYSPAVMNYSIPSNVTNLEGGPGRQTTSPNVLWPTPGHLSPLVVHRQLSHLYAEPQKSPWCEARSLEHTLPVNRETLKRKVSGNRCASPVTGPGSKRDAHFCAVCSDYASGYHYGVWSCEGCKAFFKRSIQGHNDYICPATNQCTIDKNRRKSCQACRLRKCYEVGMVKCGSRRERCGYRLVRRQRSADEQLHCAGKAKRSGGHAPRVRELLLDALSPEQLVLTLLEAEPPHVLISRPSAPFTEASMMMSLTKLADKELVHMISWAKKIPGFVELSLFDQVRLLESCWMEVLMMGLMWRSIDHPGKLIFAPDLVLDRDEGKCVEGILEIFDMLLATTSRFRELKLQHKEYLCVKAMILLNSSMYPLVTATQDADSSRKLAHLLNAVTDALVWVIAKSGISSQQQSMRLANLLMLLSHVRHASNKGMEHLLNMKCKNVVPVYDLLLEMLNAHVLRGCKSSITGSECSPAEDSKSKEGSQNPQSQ

Turning to `Cc1c(-c2ccc(O)cc2)oc(-c2ccc(O)cc2)c1-c1ccc(OCCN2CCCCC2)cc1`, the RBA at Estrogen receptor beta [1] was 0.47%; at Estrogen receptor [2], 32%.
On the same counts, the results for `CCc1c(-c2ccc(OCCN3CCCCC3)cc2)oc(-c2ccc(O)cc2)c1-c1ccc(O)cc1` are 0.06% and 0.36%.
The corresponding values for `CCc1c(-c2ccc(O)cc2)oc(-c2ccc(O)cc2)c1-c1ccc(OC)cc1` are 0.91% and 2.5%.
Consider `CCc1c(-c2ccc(O)cc2)oc(-c2ccc(O)cc2)c1-c1ccc(OCCN2CCCCC2)cc1`, for which the RBA at Estrogen receptor beta [1] came out at 3.1%; on Estrogen receptor [2], 75%. Also, the IC50 on Estrogen receptor [3] turned out to be 65 nM; at Estrogen receptor beta [4], 480 nM.
Turning to `CCc1c(-c2ccc(O)cc2)oc(-c2ccccc2)c1-c1ccc(OCCN2CCCCC2)cc1`, the RBA was 0.43% on Estrogen receptor beta [1] and 3.8% on Estrogen receptor [2].
On the same counts, the results for `CCc1c(-c2ccccc2)oc(-c2ccc(O)cc2)c1-c1ccc(OCCN2CCCCC2)cc1` are 20% and 60%.
The corresponding values for `CCCc1c(-c2ccc(O)cc2)oc(-c2ccc(O)cc2)c1-c1ccc(OCCN2CCCCC2)cc1` are 4% and 34%.
